For three compounds, remaining activity results are on record in publication PMC10824666 (Nature Cancer, 2023).

Where two headings read alike, the source gives them in different places.

One assay deals with PIM1 (Homo sapiens, UniProt P11309). The assay is described as follows: biochemical. Set-up: Eurofins DiscoverX kinase panel, competitive binding assay at 1 uM, percent of DMSO control. The conditions noted are these: competitive binding, percent of DMSO control. In outline: (§1)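 Single-point profiling at 1 µM compound in a competition-binding format against 96 kinases, read out as POC relative to control; n = 1.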
PIM1, sequence (P11309 whole entry): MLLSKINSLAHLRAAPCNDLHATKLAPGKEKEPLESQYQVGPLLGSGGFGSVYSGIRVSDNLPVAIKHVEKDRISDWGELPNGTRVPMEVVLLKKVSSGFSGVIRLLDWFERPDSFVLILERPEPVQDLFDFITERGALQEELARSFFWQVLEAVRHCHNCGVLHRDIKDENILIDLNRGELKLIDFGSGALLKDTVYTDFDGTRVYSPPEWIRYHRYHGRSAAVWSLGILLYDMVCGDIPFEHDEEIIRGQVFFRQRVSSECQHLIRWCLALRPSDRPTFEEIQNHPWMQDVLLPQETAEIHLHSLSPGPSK

The target in another assay is T1, EPHB3 (Homo sapiens, UniProt P54753).
T1 sequence (P54753 1-998): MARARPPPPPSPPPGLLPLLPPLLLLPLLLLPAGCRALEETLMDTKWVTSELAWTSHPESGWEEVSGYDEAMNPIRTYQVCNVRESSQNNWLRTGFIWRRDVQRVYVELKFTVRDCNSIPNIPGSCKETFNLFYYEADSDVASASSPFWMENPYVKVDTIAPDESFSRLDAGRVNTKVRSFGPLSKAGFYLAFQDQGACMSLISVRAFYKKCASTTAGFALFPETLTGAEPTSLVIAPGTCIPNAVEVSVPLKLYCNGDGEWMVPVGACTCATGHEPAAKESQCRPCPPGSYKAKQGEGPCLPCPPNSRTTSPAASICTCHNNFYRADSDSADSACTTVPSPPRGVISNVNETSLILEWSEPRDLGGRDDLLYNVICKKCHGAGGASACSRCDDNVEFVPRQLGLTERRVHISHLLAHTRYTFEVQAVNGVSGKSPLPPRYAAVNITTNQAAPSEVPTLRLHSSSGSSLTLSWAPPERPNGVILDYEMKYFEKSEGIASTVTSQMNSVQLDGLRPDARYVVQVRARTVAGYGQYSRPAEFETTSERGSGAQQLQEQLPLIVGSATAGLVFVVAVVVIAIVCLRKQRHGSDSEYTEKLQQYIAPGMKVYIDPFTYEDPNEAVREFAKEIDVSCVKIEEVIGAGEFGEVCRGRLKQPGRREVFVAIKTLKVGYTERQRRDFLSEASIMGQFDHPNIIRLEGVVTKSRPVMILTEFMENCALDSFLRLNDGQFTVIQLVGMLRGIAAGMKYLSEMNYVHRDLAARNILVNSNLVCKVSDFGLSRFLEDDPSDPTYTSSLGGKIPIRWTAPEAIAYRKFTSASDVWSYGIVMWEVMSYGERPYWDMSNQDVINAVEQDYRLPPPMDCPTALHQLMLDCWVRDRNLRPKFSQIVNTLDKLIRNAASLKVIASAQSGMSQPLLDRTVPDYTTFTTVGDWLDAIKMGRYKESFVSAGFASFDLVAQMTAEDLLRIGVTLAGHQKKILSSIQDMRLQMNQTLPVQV
The assay is described as follows: biochemical. The following applies: competitive binding, percent of DMSO control. Set-up: Eurofins DiscoverX kinase panel, competitive binding assay at 1 uM, percent of DMSO control. In outline:
as §1

Where [1] appears, read: read-out: Kinome Profiling performed by Eurofins DiscoverX / AM-0277, 1.0 µM / POC.
Setting [2] is: read-out: Kinome Profiling performed by Eurofins DiscoverX / AM-1882, 1.0 µM / POC.
Where [3] appears, read: read-out: Kinome Profiling performed by Eurofins DiscoverX / AM-5308, 1.0 µM / POC.

As to `CC(C)(CO)Nc1ccc(C(=O)Nc2cccc(S(=O)(=O)C3CCCC3)c2)c(N2CCC3(CC2)CC3)n1` [AM-0277], the results for the remaining activity at 1 µM on PIM1 (setting [1]) and at EPHB3 (setting [1]) were 100% and 87%, respectively.

As to `CC(C)(C)NS(=O)(=O)c1cccc(NC(=O)c2ccc(S(=O)(=O)NC(C)(C)C)cc2N2CCC3(CC2)CC3)c1` [AM-1882], the remaining activity at 1 µM at PIM1 (setting [2]) was 88.5%; at EPHB3 (setting [2]), 98%.

`C[C@@H]1CN(c2cccc(NC(=O)c3ccc(NS(=O)(=O)CCO)cc3N3CCC4(CC3)CC4)n2)CCO1` [AM-5308]: the remaining activity at 1 µM at PIM1 (setting [3]) was found to be 91%; at EPHB3 (setting [3]), 44%.
